Data taken from patent publication US9763445B2, “Safened herbicidal compositions comprising a pyridine carboxylic acid herbicide” (Dow AgroSciences, LLC, priority 2014, dated 2017).

How the values were obtained:
wild buckwheat (POLCO) = test: Postemergence greenhouse trial, % visual injury on wild buckwheat; type: in vivo, Polygonum convolvulus; details: alone, 35 g/ha
Procedure: (§1) Seeds of the desired test plant species were planted in Sun Gro MetroMix® 306 planting mixture, which typically has a pH of 6.0 to 6.8 and an organic matter content of about 30 percent, in plastic pots with a surface area of 103.2 square centimeters (cm^2). When required to ensure good germination and healthy plants, a fungicide treatment and/or other chemical or physical treatment was applied. The plants were grown for 7-36 days (d) in a greenhouse with an approximate 14-hour (h) photoperiod which was maintained at about 23° C. during the day and 22° C. during the night. Nutrients and water were added on a regular basis and supplemental lighting was provided with overhead metal halide 1000-Watt lamps as necessary. The plants were employed for testing when they reached the second or third true leaf stage.
(§2) Weighed amounts of technical material were dissolved in a volume of 97:3 volume per volume (v/v) acetone/dimethyl sulfoxide (DMSO) to stock solutions. […] The concentrated stock solutions were diluted with an aqueous mixture of 1.5% v/v of Agri-dex crop oil concentrate to provide the appropriate application rates. Compound requirements are based upon a 12 milliliter (mL) application volume at a rate of 187 liters per hectare (L/ha). Stocks solutions of the safeners were prepared following the same procedure. Spray solutions of the safeners and experimental compound mixtures were prepared by adding the stock solutions to the appropriate amount of dilution solution to form a 12 mL spray solution in two-way combinations. Formulated compounds were applied to the plant material with an overhead Mandel track sprayer equipped with 8002E nozzles calibrated to deliver 187 L/ha over an application area of 0.503 square meters (m^2) at a spray height of 18 inches (43 centimeters (cm)) above average plant canopy. Control plants were sprayed in the same manner with the solvent blank. All herbicide application (component a) rates are in g ae/ha and all safener (component b) rates are in g ai/ha.
(§3) The treated plants and control plants were placed in a greenhouse as described above and watered by sub-irrigation to prevent wash-off of the test compounds. After 20-22 d, the condition of the test plants as compared with that of the control plants was determined visually and scored on a scale of 0 to 100 percent where 0 corresponds to no injury and 100 corresponds to complete kill. The condition of the test plants was compared with that of the control plants as determined visually and scored on a scale of 0 to 100 percent, where 0 corresponds to no injury and 100 corresponds to complete kill. Colby's equation was used to determine the herbicidal effects expected from the mixtures.
(§4) The safener cloquintocet-mexyl was combined with compound 1, compound 2, compound 4, compound 5, and compound 6, and applied to corn/maize (ZEAMX) and spring wheat (TRZAS) and the phytotoxicity of the herbicidal compositions was measured. In addition, the efficacy of the herbicidal composition on velvetleaf (ABUTH, Abutilon theophrasti), pigweed (AMARE, Amaranthus retroflexus), winter rape (BRSNW, Brassica napus), lambsquarters (CHEAL, Chenopodium album), thistle (CIRAR, Cirsium arvense), nutsedge (CYPES, Cyperus esculentus), poinsettia (EPHHL, Euphorbia heterophylla), wild buckwheat (POLCO, Polygonum convolvulus), giant foxtail (SETFA, Setaria faberi), and chickweed (STEME, Stellaria media) was evaluated.
(§5) The safener cloquintocet-mexyl was combined with compound 1, compound 2, compound 3, compound 7, compound 8, compound 9, compound 10, compound 11, compound 12, compound 13, compound 14, compound 15, compound 16, compound 17, compound 18, compound 19, and compound 20, and applied to spring wheat (TRZAS), winter wheat (TRZAW), and spring barley (HORVS) and the phytotoxicity of the herbicidal compositions was measured. […]

chickweed (STEME) = test: Postemergence greenhouse trial, % visual injury on chickweed; type: in vivo, Stellaria media; details: alone, 35 g/ha
Procedure: as §1, §2, §3
as §4, with “evaluated. […]” for “evaluated.”

poinsettia (EPHHL) = test: Postemergence greenhouse trial, % visual injury on poinsettia; type: in vivo, Euphorbia heterophylla; details: alone, 35 g/ha
Procedure: as §1
(§6) Weighed amounts of technical material were dissolved in a volume of 97:3 volume per volume (v/v) acetone/dimethyl sulfoxide (DMSO) to stock solutions. […] The concentrated stock solutions were diluted with an aqueous mixture of 1.5% v/v of Agri-dex crop oil concentrate to provide the appropriate application rates. Compound requirements are based upon a 12 milliliter (mL) application volume at a rate of 187 liters per hectare (L/ha). Stocks solutions of the safeners were prepared following the same procedure. […]
as §3, with “Colby's equation was used to determine the herbicidal effects expected from the mixtures.” left out
as §4, with “evaluated. […]” for “evaluated.”

winter rape (BRSNW) = test: Postemergence greenhouse trial, % visual injury on winter rape; type: in vivo, Brassica napus; details: Brassica napus, post-emergence; alone, 35 g/ha; read-out: % visual injury, Ob
How it was run: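 Plants at second or third true leaf stage, greenhouse-grown (14 h photoperiod, ~23/22° C.), sprayed postemergence with compounds alone or with safener cloquintocet-mexyl in 1.5% v/v Agri-dex crop oil at 187 L/ha. Visual injury scored 0–100% versus solvent-blank controls after 20-22 d; expected mixture effects by Colby's equation.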

giant foxtail (SETFA) = test: Postemergence greenhouse trial, % visual injury on giant foxtail; type: in vivo, Setaria faberi; details: alone, 35 g/ha
Procedure: as §1
as §6, with “(L/ha).” for “(L/ha). Stocks solutions of the safeners were prepared following the same procedure.”
as §3, with “Colby's equation was used to determine the herbicidal effects expected from the mixtures.” left out
The safener cloquintocet-mexyl was combined with compound 1, compound 2, compound 4, compound 5, and compound 6, and applied to corn/maize (ZEAMX) and spring wheat (TRZAS) and the phytotoxicity of the herbicidal compositions was measured. […]

corn/maize (ZEAMX) = test: Postemergence greenhouse trial, % visual injury on corn/maize; type: in vivo, Zea mays; details: alone, 35 g/ha
Procedure: as §1, §2, §3
as §4, with “evaluated. […]” for “evaluated.”

thistle (CIRAR) = test: Postemergence greenhouse trial, % visual injury on thistle; type: in vivo, Cirsium arvense; details: Cirsium arvense, post-emergence; alone, 35 g/ha; read-out: % visual injury, Ob
Procedure: as §1, §2, §3
as §4, with “evaluated. […]” for “evaluated.”

velvetleaf (ABUTH) = test: Postemergence greenhouse trial, % visual injury on velvetleaf; type: in vivo, Abutilon theophrasti; details: alone, 35 g/ha
Procedure: as §1, §2, §3, §4, §5

pigweed (AMARE) = test: Postemergence greenhouse trial, % visual injury on pigweed; type: in vivo, Amaranthus retroflexus; details: Amaranthus retroflexus, post-emergence; alone, 35 g/ha; read-out: % visual injury, Ob
How it was run: (§7)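 Postemergence greenhouse spray (187 L/ha, 1.5% v/v Agri-dex in water, acetone/DMSO stocks) on plants at second–third true leaf stage, ~23/22 °C, 14 h photoperiod; herbicides in g ae/ha, safener cloquintocet-mexyl in g ai/ha. Visual injury 0–100% versus solvent-blank controls after 20–22 d; Colby's equation gave expected mixture effects.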

lambsquarters (CHEAL) = test: Postemergence greenhouse trial, % visual injury on lambsquarters; type: in vivo, Chenopodium album; details: Chenopodium album, post-emergence; alone, 35 g/ha; read-out: % visual injury, Ob
Procedure: as §1, §2, §3, §4, §5

spring wheat (TRZAS) = test: Postemergence greenhouse trial, % visual injury on spring wheat; type: in vivo, Triticum aestivum; details: alone, 35 g/ha
How it was run: as §7

COC(=O)c1nc(-c2ccc3ccn(C(=O)C(C)(C)C)c3c2F)c(F)c(N)c1Cl [compound 5]
% visual injury, Ob (wild buckwheat (POLCO)): 100% | % visual injury, Ob (chickweed (STEME)): 85% | % visual injury, Ob (poinsettia (EPHHL)): 100% | plant injury at 35 g/ha (winter rape (BRSNW)): 97% | % visual injury, Ob (giant foxtail (SETFA)): 60% | % visual injury, Ob (corn/maize (ZEAMX)): 35% | pest or weed control at 35 g/ha (thistle (CIRAR)): 80% | % visual injury, Ob (velvetleaf (ABUTH)): 80% | pest or weed control at 35 g/ha (pigweed (AMARE)): 100% | pest or weed control at 35 g/ha (lambsquarters (CHEAL)): 100% | % visual injury, Ob (spring wheat (TRZAS)): 45%
